Measured values as given in PubChem BioAssay AID1159565 (GlaxoSmithKline (GSK), 2015).
Active and inactive are the calls of the source. The rule behind the calls is not given here.

Tested on: T. cruzi-infected H9C2 cardiomyocytes, high-content imaging
Assay: anti-T. cruzi activity in infected cardiomyocytes – imaging, H9C2 host cardiomyocytes, host toxicity (AID 1159565);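 note: infected cells incubated 72 h after plating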
[1] = measured here: H9C2 host cell toxicity
[2] = measured here: amastigotes per cell

Structure (SMILES) | IC50 | IC50 [1] [nM] | IC50 [2] [nM]
CNC(=O)C1Cc2ccccc2N1C(=O)COc1cccc(OC)c1 (stereo not given) | > 50000 nM (inactive) | > 50000 | > 50000
Cc1cc(NC(=O)c2ccc([N+](=O)[O-])s2)ccc1Br | 400 nM | 2500 | 250
OCC1CCCCN1c1cc(-c2ccccn2)nc(Nc2ccccc2)n1 (stereo not given) | 4000 nM | 500 | 2000
O=C1OCc2ccc(Nc3nccc(-c4cnn5ncccc45)n3)cc21 | 63 nM | 25 | 32
CNc1cc(C)nc(C2CN(C(=O)c3n[nH]c4ccccc34)CCO2)c1 (stereo not given) | 2500 nM | > 50000 | 790
CNC(=O)C1Cc2ccccc2N1C(=O)Cc1ccc(OC)cc1 (stereo not given) | > 50000 nM (inactive) | > 50000 | > 50000
CC(Cn1ccnc1)NC(=O)C1CC1c1cccc(Cl)c1Cl (stereo not given) | 250 nM | > 50000 | 200
CC(C)(C)C(=O)Nc1cc(C2CC2)nn1-c1nc2c(c(=O)[nH]1)CCCC2 | 500 nM | 2000 | 130
Cc1ccc2nc(N(Cc3cccnc3)C(=O)CCc3ccccc3)sc2c1 | 40 nM | > 50000 | 32
CC(C)Nc1nccc(-c2c(-c3ccc(F)cc3)ncn2C2CCOCC2)n1 | 320 nM | > 50000 | 200
COc1cccc(C(=O)[C@H]2C[C@@H]2CN(Cc2cccnc2)Cc2cccnc2)c1 | 63 nM | > 50000 | 50
Nc1cc(-c2ccc3ncnc(N4CCOCC4)c3c2)cnc1N | 5000 nM | 3200 | 1600
c1ccc(-c2nc(NC3CCCC3)c3ccccc3n2)nc1 | 790 nM | 500 | 2000
COc1cc(C2SCC(=O)Nc3c2c(C)nn3-c2nc3ccccc3s2)cc(OC)c1O (stereo not given) | > 50000 nM (inactive) | > 50000 | > 50000
COc1cc(OC)cc(C(=O)N[C@@H](CC(C)C)C(=O)NC2(C#N)CC2)c1 | > 50000 nM (inactive) | > 50000 | > 50000
COc1cc(-c2noc(CC#N)n2)ccc1OC(F)F | 40000 nM | 32000 | 25000
Cc1c(Nc2cc(C3CC3)[nH]n2)ccc(C#N)c1Cl | 25000 nM | 10000 | 16000
Cc1cccnc1CN1CCN(CCCOc2ccc(-c3ccc(C(N)=O)cc3)cc2)CC1 | 20000 nM | > 50000 | 400
COc1ccc(CN2CCCCC2c2nc(-c3cccnc3)no2)cc1 (stereo not given) | 790 nM | > 50000 | 630
CC(C)S(=O)(=O)c1ccc(-c2cnc(N)c3cc(-c4ccnc(N)n4)ccc23)cc1 | 40000 nM | 500 | 13000
O=C(c1cccc(Nc2ncc(-c3ccc4c(c3)OCO4)cn2)c1)N1CCOCC1 | 1300 nM | 6300 | 790
O=C(Nc1nc2ccccc2[nH]1)c1ccc2nc[nH]c2c1 | > 50000 nM (inactive) | > 50000 | 50000
COc1ccc([N+](=O)[O-])cc1NC(=O)c1cc(Cl)ccc1O | 16000 nM | > 50000 | 7900
NC(=O)c1ncc(N[C@@H]2CCCNC2)nc1Nc1cccc(Cl)c1 | 400 nM | 1300 | 250
Cc1cc2ncn(-c3ccc([N+](=O)[O-])cc3C#N)c2cc1C | 2000 nM | > 50000 | 790
